Source: ChEMBL document CHEMBL4052711, “Synthesis of 4- and 5-arylthiazolinethiones as inhibitors of indoleamine 2,3-dioxygenase” (Bioorg Med Chem Lett, 2017)

Legend:
[1] = biological target: T1, Indoleamine 2,3-dioxygenase 1 (Homo sapiens, UniProt P14902); experiment: Inhibition of human IDO1 at 100 uM pre-incubated for 10 mins before L-Trp as substrate addition and measured after 30 mins by colorimetry
Target sequence in this assay (P14902 whole entry, looked up): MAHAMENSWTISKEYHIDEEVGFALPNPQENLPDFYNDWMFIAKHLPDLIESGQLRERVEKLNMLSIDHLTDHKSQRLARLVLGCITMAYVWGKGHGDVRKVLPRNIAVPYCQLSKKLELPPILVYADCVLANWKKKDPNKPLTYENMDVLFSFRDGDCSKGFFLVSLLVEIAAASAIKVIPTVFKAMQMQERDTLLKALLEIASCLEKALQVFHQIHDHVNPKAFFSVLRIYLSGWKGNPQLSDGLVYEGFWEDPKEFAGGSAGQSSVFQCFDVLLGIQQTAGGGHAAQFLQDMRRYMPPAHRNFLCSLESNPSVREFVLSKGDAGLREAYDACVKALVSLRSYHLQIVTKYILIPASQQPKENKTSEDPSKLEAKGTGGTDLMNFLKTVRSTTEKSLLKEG

[2] = biological target: T1, Indoleamine 2,3-dioxygenase 1; experiment: Inhibition of human IDO1 at 10 uM pre-incubated for 10 mins before L-Trp as substrate addition and measured after 30 mins by colorimetry
Target sequence in this assay (P14902 whole entry, looked up): as above

[3] = biological target: T1, Indoleamine 2,3-dioxygenase 1; experiment: Inhibition of human IDO1 pre-incubated for 10 mins before L-Trp as substrate addition and measured after 30 mins by colorimetry
Target sequence in this assay (P14902 whole entry): as the sequence (P14902 whole entry, looked up) above

inhibition [1] [%]	SMILES	other results
90	Cc1ccc(-c2csc(S)n2)cc1	inhibition [2]: 39%; IC50 ([3]; read-out: IC50): 5.9 µM
16	S=c1[nH]cc(-c2ccccc2)s1	
15	Oc1nc(-c2ccccc2)cs1	
8	O=C(O)c1ccccc1-c1csc(=S)[nH]1	
95	Sc1nc(-c2ccc(Cl)cc2)cs1	inhibition [2]: 79%; IC50 ([3]; read-out: IC50): 2.6 µM; IC50 ([3]; read-out: pIC50 (converted)): 2.86 µM
0.5	Clc1nc(-c2ccccc2)cs1	
53	COc1ccccc1-c1csc(=S)[nH]1	
72	Fc1ccc(-c2csc(S)n2)cc1	
76	Sc1nc(-c2ccccc2)cs1	inhibition [2]: 35%
13	Nc1nc(-c2ccccc2)cs1	
77	Fc1ccccc1-c1csc(=S)[nH]1	
12	Brc1nc(-c2ccccc2)cs1	
48	S=c1[nH]c(-c2cccnc2)cs1	

Second part, the compound before the results:

SMILES	inhibition [1] [%]	other results
COc1ccccc1-c1c[nH]c(=S)s1	12	
COc1ccc(-c2csc(=S)[nH]2)cc1	68	
Cc1ccc(-c2c[nH]c(=S)s2)cc1	15	
S=c1[nH]cc(-c2cccc(Br)c2)s1	48	
FC(F)(F)c1ccc(-c2csc(=S)[nH]2)cc1	37	
COc1ccc(-c2c[nH]c(=S)s2)cc1	0	
S=c1[nH]c(-c2ccncc2)cs1	21	
N#Cc1ccc(-c2csc(=S)[nH]2)cc1	8	
OCc1cccc(-c2csc(=S)[nH]2)c1	16	
S=c1[nH]c(-c2ccc(Br)cc2)cs1	100	inhibition [2]: 88%; IC50 ([3]; read-out: IC50): 3.4 µM
Fc1ccccc1-c1c[nH]c(=S)s1	29	
S=c1[nH]c(-c2cccc(Br)c2)cs1	81	
S=c1[nH]c(-c2cccc(Cl)c2)cs1	40	
Fc1cccc(-c2csc(=S)[nH]2)c1	28	
